Source: the NIST ThermoML archive (doi:10.1021/je700152c)

Experiment: molar heat capacity at saturation pressure; xn = mol fraction of the nth substance listed

CCCCn1cc[n+](C)c1.Cc1ccc(S(=O)(=O)[O-])cc1 [1-butyl-3-methylimidazolium tosylate] + O
Conditions	molar heat capacity [J/K/mol]
294.67 K, Crystal, x1 = 0.3	204.91
294.68 K, Crystal, x1 = 0.83	580.85
294.91 K, Crystal, x1 = 0.37	561.1
295.64 K, Crystal, x1 = 0.37	590.88
295.82 K, Liquid, x1 = 0.3	198.57
296.25 K, Crystal, x1 = 0.83	574.07
296.33 K, Crystal, x1 = 0.37	593.15
296.53 K, Metastable crystal, x1 = 0.83	425.47
296.97 K, Liquid, x1 = 0.3	199.1
297.06 K, Crystal, x1 = 0.37	577.63
297.82 K, Crystal, x1 = 0.37	542.42
297.88 K, Crystal, x1 = 0.83	481.52
298.13 K, Liquid, x1 = 0.3	199.52
298.45 K, Metastable crystal, x1 = 0.83	435.64
298.66 K, Crystal, x1 = 0.37	429.59
299.28 K, Liquid, x1 = 0.3	199.84
299.67 K, Crystal, x1 = 0.83	439.03
299.68 K, Crystal, x1 = 0.37	268.68
300.26 K, Metastable crystal, x1 = 0.83	440.59
301.01 K, Liquid, x1 = 0.3	200.58
301.5 K, Crystal, x1 = 0.83	445.81
301.5 K, Liquid, x1 = 0.37	233.85
302.51 K, Metastable crystal, x1 = 0.83	454.93
303.31 K, Crystal, x1 = 0.83	454.15
303.34 K, Liquid, x1 = 0.3	201.21
304 K, Liquid, x1 = 0.37	232.59
305.11 K, Crystal, x1 = 0.83	462.49
305.64 K, Liquid, x1 = 0.3	201.95
306.39 K, Metastable crystal, x1 = 0.83	484.39
306.5 K, Liquid, x1 = 0.37	233.6
306.89 K, Crystal, x1 = 0.83	471.88
307.94 K, Liquid, x1 = 0.3	202.8
308.65 K, Crystal, x1 = 0.83	484.39
309 K, Liquid, x1 = 0.37	234.48
309.82 K, Metastable crystal, x1 = 0.83	516.2
310.24 K, Liquid, x1 = 0.3	203.54
310.39 K, Crystal, x1 = 0.83	497.69
311.5 K, Liquid, x1 = 0.37	235.37
312.09 K, Crystal, x1 = 0.83	512.81
312.54 K, Liquid, x1 = 0.3	204.38
313.06 K, Metastable crystal, x1 = 0.83	550.87
313.75 K, Crystal, x1 = 0.83	529.23
313.99 K, Liquid, x1 = 0.37	236.25
314.83 K, Liquid, x1 = 0.3	205.13
315.4 K, Crystal, x1 = 0.83	549.31
316.18 K, Metastable crystal, x1 = 0.83	596.49
316.49 K, Liquid, x1 = 0.37	237.13
317.02 K, Crystal, x1 = 0.83	571.21
317.13 K, Liquid, x1 = 0.3	205.87
318.6 K, Crystal, x1 = 0.83	596.23
318.98 K, Liquid, x1 = 0.37	238.14
319.16 K, Metastable crystal, x1 = 0.83	653.33
319.42 K, Liquid, x1 = 0.3	206.82
320.13 K, Crystal, x1 = 0.83	624.39
321.47 K, Liquid, x1 = 0.37	239.03
321.62 K, Crystal, x1 = 0.83	655.93
321.7 K, Liquid, x1 = 0.3	207.45
321.99 K, Metastable crystal, x1 = 0.83	719.81
323.06 K, Crystal, x1 = 0.83	690.35
323.96 K, Liquid, x1 = 0.37	239.91
323.99 K, Liquid, x1 = 0.3	208.19
324.46 K, Crystal, x1 = 0.83	727.63
324.62 K, Metastable crystal, x1 = 0.83	811.31
325.81 K, Crystal, x1 = 0.83	774.82
326.27 K, Liquid, x1 = 0.3	209.04
326.44 K, Liquid, x1 = 0.37	240.92
327.04 K, Metastable crystal, x1 = 0.83	934.11
327.1 K, Crystal, x1 = 0.83	828.52
328.33 K, Crystal, x1 = 0.83	892.65
328.55 K, Liquid, x1 = 0.3	209.99
328.93 K, Liquid, x1 = 0.37	241.8
329.23 K, Metastable crystal, x1 = 0.83	1093.4
329.5 K, Crystal, x1 = 0.83	965.13
330.61 K, Crystal, x1 = 0.83	1053
330.82 K, Liquid, x1 = 0.3	210.94
331.17 K, Metastable crystal, x1 = 0.83	1295.7
331.41 K, Liquid, x1 = 0.37	242.69
331.64 K, Crystal, x1 = 0.83	1141.9
332.6 K, Crystal, x1 = 0.83	1224.8
332.82 K, Metastable crystal, x1 = 0.83	1513.7
333.09 K, Liquid, x1 = 0.3	212.21
333.26 K, Crystal, x1 = 0.83	1386.4
333.89 K, Liquid, x1 = 0.37	243.57
334.14 K, Crystal, x1 = 0.83	1617.9
334.32 K, Metastable crystal, x1 = 0.83	1881.5
335.19 K, Crystal, x1 = 0.83	1296.5
335.35 K, Liquid, x1 = 0.3	213.8
336.19 K, Crystal, x1 = 0.83	1133.3
336.37 K, Liquid, x1 = 0.37	244.45
336.41 K, Metastable crystal, x1 = 0.83	678.36
337.35 K, Crystal, x1 = 0.83	711.99
337.61 K, Liquid, x1 = 0.3	215.06
338.19 K, Crystal, x1 = 0.83	480.74
338.85 K, Liquid, x1 = 0.37	245.21
339.63 K, Liquid, x1 = 0.83	464.32
339.88 K, Liquid, x1 = 0.3	213.58
340.02 K, Liquid, x1 = 0.83	459.1
341.32 K, Liquid, x1 = 0.37	246.09
341.87 K, Liquid, x1 = 0.83	460.41
342.14 K, Liquid, x1 = 0.3	213.58
342.82 K, Liquid, x1 = 0.83	461.71
343.71 K, Liquid, x1 = 0.83	461.71
343.8 K, Liquid, x1 = 0.37	246.98
344.41 K, Liquid, x1 = 0.3	214.32
345.56 K, Liquid, x1 = 0.83	462.75
345.93 K, Liquid, x1 = 0.83	463.79
346.27 K, Liquid, x1 = 0.37	247.86
346.67 K, Liquid, x1 = 0.3	214.96
347.4 K, Liquid, x1 = 0.83	464.06
348.75 K, Liquid, x1 = 0.37	248.62
348.93 K, Liquid, x1 = 0.3	215.7
349.04 K, Liquid, x1 = 0.83	465.88
349.25 K, Liquid, x1 = 0.83	465.36
351.1 K, Liquid, x1 = 0.83	466.66
351.19 K, Liquid, x1 = 0.3	216.44
351.22 K, Liquid, x1 = 0.37	249.38
352.16 K, Liquid, x1 = 0.83	467.97
352.94 K, Liquid, x1 = 0.83	467.71
353.44 K, Liquid, x1 = 0.3	217.07
353.69 K, Liquid, x1 = 0.37	250.51
354.79 K, Liquid, x1 = 0.83	469.01
355.28 K, Liquid, x1 = 0.83	469.79
355.69 K, Liquid, x1 = 0.3	217.81
356.16 K, Liquid, x1 = 0.37	251.4
356.63 K, Liquid, x1 = 0.83	470.31
357.94 K, Liquid, x1 = 0.3	218.55
358.39 K, Liquid, x1 = 0.83	471.88
358.47 K, Liquid, x1 = 0.83	471.62
358.63 K, Liquid, x1 = 0.37	252.4
360.18 K, Liquid, x1 = 0.3	219.19
360.31 K, Liquid, x1 = 0.83	472.92
361.09 K, Liquid, x1 = 0.37	253.04
361.5 K, Liquid, x1 = 0.83	473.7
362.15 K, Liquid, x1 = 0.83	474.22
362.42 K, Liquid, x1 = 0.3	219.82
363.55 K, Liquid, x1 = 0.37	253.92
363.99 K, Liquid, x1 = 0.83	475.27
364.61 K, Liquid, x1 = 0.83	475.79
364.66 K, Liquid, x1 = 0.3	220.25
365.82 K, Liquid, x1 = 0.83	476.31
366 K, Liquid, x1 = 0.37	254.68
366.89 K, Liquid, x1 = 0.3	221.09
367.72 K, Liquid, x1 = 0.83	477.87
368.46 K, Liquid, x1 = 0.37	255.69
